Where a name gives a salt, the structure may show the parent alone.
What was measured:
thrombocyte aggregation = experiment: Antithrombotic activity: inhibition of collagen-induced platelet aggregation (Born and Cross) in platelet-rich plasma; assay type: cell-based, healthy volunteers (human); conditions: 10 min, human platelet-rich plasma, 10 minutes incubation at 37° C.
Method: Method The thrombocyte aggregation is measured using the Born and Cross method (J. Physiol. 170: 397 (1964)) in platelet-rich plasma taken from healthy volunteers. To inhibit coagulation the blood is mixed with 3.14% sodium citrate in a ratio by volume of 1:10. Collagen-induced aggregation The pattern of the decrease in optical density of the platelet suspension is photometrically measured and recorded after the addition of the aggregation-triggering substance. The rate of aggregation is concluded from the angle of inclination of the density curve. The point on the curve where there is maximum light transmittance is used to calculate the optical density. The amount of collagen used is as small as possible but sufficient to produce an irreversible reaction curve. Standard commercial collagen produced by Hormonchemie of Munich is used. Before the addition of the collagen the plasma is incubated for 10 minutes with the substance at 37° C. From the measurements obtained an EC50 is determined graphically, indicating a 50% change in the optical density in terms of the inhibition of aggregation.

human thrombocytes [1] = experiment: Fibrinogen binding to human thrombocytes (125I-fibrinogen, gel-filtered platelets); conditions: inhibition of 125I-fibrinogen binding by 50%, 20 minutes at ambient temperature, read-out: Fibrinogen binding test ID50
Method: (§1) 1. Fibrinogen binding to human thrombocytes Blood obtained by puncture of an antecubital vein is anticoagulated with trisodium citrate (final concentration: 13 mM) and centrifuged for 10 minutes at 170 *g. The supernatant platelet-rich plasma is placed on a Sepharose 2B column (Pharmacia) and eluted with a solution of 90 mM common salt, 14 mM trisodium citrate, 5 mM glucose and 50 mM tris(hydroxymethyl)aminomethane, adjusted to pH 7.4. The gel-filtered platelets (GFP) appearing in front of the plasma proteins are used for the binding tests. 50 μl of a 60 mM calcium chloride solution, 50 μl of a 0.6 mM adenosine diphosphate solution, 100 μl of substance solution or solvent and 50 μl of fibrinogen solution (containing 3 μg ^125 I-fibrinogen) are added to 750 μl of GFP and incubated for 20 minutes at ambient temperature. The non-specific binding is measured in the presence of 3 mg/ml of cold fibrinogen. 900 μl of the incubate are carefully pipetted onto 250 μl of silicon oil (AP 38: AR 20, 1:2 v/v, Wacker Chemie) in Eppendorf vessels and centrifuged for 2 minutes at 10,000 *g. The aqueous supernatant and some of the oil are removed, the tip of the vessel with the platelet pellet is cut off and the quantity of bound fibrinogen is measured in a gamma-counter. The concentration of substance which inhibits fibrinogen binding by 50% is calculated from a series of concentrations and given as the IC50.

mice = experiment: Tolerability after intravenous administration to mice; assay type: in vivo; conditions: intravenous administration of 30 mg/kg to three mice
human thrombocytes [2] = experiment: Fibrinogen binding test on human thrombocytes with 125I-fibrinogen replaced by a 3H-labelled ligand (footnote *); conditions: * 125I fibrinogen replaced by 3H-labelled (3S,5S)-5-[(4amidino-4-biphenylyl)-oxymethyl... pyrrolidon ligand; 20 min; read-out: Fibrinogen binding test ID50
Method: as §1, with “The gel-filtered platelets (GFP) appearing in front of the plasma proteins are used for the binding tests. 50 μl of a 60 mM calcium chloride solution, 50 μl of a 0.6 mM adenosine diphosphate solution, 100 μl of substance solution or solvent and 50 μl of fibrinogen solution (containing 3 μg ^125 I-fibrinogen) are added to 750 μl of GFP and incubated for 20 minutes at ambient temperature.” left out, “IC50. | *^125 I fibrinogen was replaced by [^3 […]” for “IC50.”

human thrombocytes [3] = experiment: Antiaggregatory activity ex vivo after oral administration to rats, rat plasma in the presence of human thrombocytes; parameters: species or system rat (treated animals; conditions: 10 mg/kg oral, two hours after administration, rat plasma with human thrombocytes

Compound | EC50 (thrombocyte aggregation) | IC50 (human thrombocytes [1]) | IC50 (human thrombocytes [2]) | deaths (mice) | antiaggregatory activity (human thrombocytes [3])
N=C(N)c1ccc(-c2cc(C(=O)NCCCCC(=O)O)c(=O)[nH]n2)cc1 [1(3), 6-(4-amidinophenyl)-4-[(4-carboxybutyl)-aminocarbonyl]-2H-pyridazin-3-one] | 390 nM | 200 nM |  |  | 
Cn1nc(-c2ccc(C(=N)N)cc2)cc(C(=O)N[C@H]2CC[C@H](C(=O)O)CC2)c1=O [1(4), 6-(4-amidinophenyl)-4-[(trans-4-carboxycyclohexyl)-aminocarbonyl]-2-methyl-(2H)-pyridazin-3-one] | 540 nM | 37 nM |  | did not cause any deaths | 
Cn1nc(-c2ccc(C(=N)N)cc2)cc(C(=O)N(C)[C@H]2CC[C@H](C(=O)O)CC2)c1=O [1(16), 6-(4-amidinophenyl)-4-[N-(trans-4-carboxycyclohexyl)-N-methyl-aminocarbonyl]-2-methyl-(2H)-pyridazin-3-one] | 160 nM | 55 nM |  | did not cause any deaths | 
N=C(N)c1ccc(-c2cc(C(=O)N[C@H]3CC[C@H](C(=O)O)CC3)cnn2)cc1 [1(20), 3-(4-amidinophenyl)-5-[(trans-4-carboxycyclohexyl)-aminocarbonyl]-pyridazine] | 290 nM | 57 nM |  | did not cause any deaths | 
COC(=O)CCCCNC(=O)c1cc(-c2ccc(C(=N)N)cc2)nn(C)c1=O [2(1), 6-(4-amidinophenyl)-4-[[4-(methoxycarbonyl)-butyl]-aminocarbonyl]-2-methyl-(2H)-pyridazin-3-one] | 1900 nM | 3200 nM |  |  | 
COC(=O)CC1CCN(C(=O)c2cnc(-c3ccc(C(=N)N)cc3)nc2OC)CC1 [2(15), 2-(4-amidinophenyl)-4-methoxy-5-[4-[(methoxycarbonyl)-methyl]-piperidinocarbonyl]-pyrimidine-hydrochloride] | 5200 nM | 52000 nM |  |  | 
Cn1nc(-c2ccc(C(=N)N)cc2)cc(C(=O)NCCCCC(=O)O)c1=O [Example 1, 6-(4-Amidinophenyl)-4-[(4-carboxybutyl)-aminocarbonyl]-2-methyl-(2H)-pyridazin-3-one] | 420 nM | 130 nM |  | did not cause any deaths | 
COC(=O)NC(=N)c1ccc(-c2cc(C(=O)N[C@H]3CC[C@H](C(=O)OC)CC3)c(=O)n(C)n2)cc1 [Example 3, 6-[4-[N-(Methoxycarbonyl)-amidino]-phenyl]-4-[[trans-4-(methoxycarbonyl)-cyclohexyl]-aminocarbonyl]-2-methyl-(2H)-pyridazin-3-one] | > 300000 nM | 2200 nM |  | did not cause any deaths | showed an antiaggregatory activity
Cl.Cn1nc(-c2ccc(CN)cc2)cc(C(=O)N[C@H]2CC[C@H](C(=O)O)CC2)c1=O [Example 4, 6-[4-(Aminomethyl)-phenyl]-4-[(trans-4-carboxy-cyclohexyl)-aminocarbonyl]-2-methyl-(2H)-pyridazin-3-one-hydrochloride] | 790 nM | 370 nM |  | did not cause any deaths | 

Second part, led by results:

EC50 (thrombocyte aggregation) | IC50 (human thrombocytes [1]) | IC50 (human thrombocytes [2]) | Compound | deaths (mice) | antiaggregatory activity (human thrombocytes [3])
12000 nM | 4400 nM |  | N=C(N)c1ccc(-c2ccc(Nc3ccc(CCC(=O)O)cc3)nn2)cc1 [1(7), 6-(4-amidinophenyl)-3-[4-(2-carboxyethyl)-phenylamino]-pyridazine] |  | 
39000 nM | 1700 nM |  | N=C(N)c1ccc(-c2ccc(Oc3ccc(CCC(=O)O)cc3)nn2)cc1 [1(8), 6-(4-amidinophenyl)-3-[4-(2-carboxyethyl)-phenyloxy]-pyridazine] |  | 
1200 nM | 580 nM |  | N=C(N)c1ccc(-c2ccc(N[C@H]3CC[C@H](C(=O)O)CC3)nn2)cc1 [1(11), 6-(4-amidinophenyl)-3-[(trans-4-carboxycyclohexyl)-amino]-pyridazine] |  | 
100 nM | 33 nM |  | COc1nc(-c2ccc(C(=N)N)cc2)ncc1C(=O)N1CCC(CC(=O)O)CC1 [1(14), 2-(4-amidinophenyl)-5-[4-(carboxymethyl)-piperidinocarbonyl]-4-methoxy-pyrimidine] |  | 
310 nM |  | 33 nM | N=C(N)c1ccc(-c2cc(C(=O)N[C@H]3CC[C@H](C(=O)O)CC3)c(=O)n(Cc3ccccc3)n2)cc1 [1(18), 6-(4-amidinophenyl)-2-benzyl-4-[(trans-4-carboxycyclohexyl)-aminocarbonyl]-(2H)-pyridazin-3-one] |  | 
320 nM | 62 nM |  | COc1nnc(-c2ccc(C(=N)N)cc2)cc1C(=O)N[C@H]1CC[C@H](C(=O)O)CC1 [1(21), 6-(4-amidinophenyl)-4-[(trans-4-carboxycyclohexyl)-aminocarbonyl]-3-methoxy-pyridazine] |  | 
100 nM |  | 33 nM | N=C(N)c1ccc(-c2cc(C(=O)N[C@H]3CC[C@H](C(=O)O)CC3)c(=O)n(CC(=O)N3CCOCC3)n2)cc1 [1(30), 6-(4-amidinophenyl)-4-[(trans-4-carboxycyclohexyl)-aminocarbonyl]-2-[(morpholinocarbonyl)-methyl]-(2H)-pyridazin-3-one-hydrochloride] |  | 
1300 nM | 2300 nM |  | COC(=O)[C@H]1CC[C@H](N(C)C(=O)c2cc(-c3ccc(C(=N)N)cc3)nn(C)c2=O)CC1 [2(17), 6-(4-amidinophenyl)-4-[N-[trans-4-(methoxycarbonyl)-cyclohexyl]-N-methyl-aminocarbonyl]-2-methyl-(2H)-pyridazin-3-one-hydrochloride] |  | 
360 nM | 1900 nM |  | COC(=O)[C@H]1CC[C@H](NC(=O)c2cc(-c3ccc(C(=N)N)cc3)nn(C)c2=O)CC1 [Example 2, 6-(4-Amidinophenyl)-4-[[trans-4-(methoxycarbonyl)-cyclohexyl]-aminocarbonyl]-2-methyl-(2H)-pyridazin-3-one] |  | 
3000 nM | 6200 nM |  | COC(=O)[C@H]1CC[C@H](NC(=O)c2cc(-c3ccc(CN)cc3)nn(C)c2=O)CC1 [Example 5, 6-[4-(Aminomethyl)-phenyl]-4-[[trans-4-(methoxycarbonyl)-cyclohexyl]-aminocarbonyl]-2-methyl-(2H)-pyridazin-3-one-hydrochloride] |  | 
